These are literature values, as cited in patent publication US20140323580A1, “P[…] DOSAGE FORM” (Pharmacorp CC, priority 2009, published 2014).

Counter-ions that a name gives are not always drawn. Like-named read-outs stand apart in the source and are kept apart here.

Regarding `CC(C)(N)Cc1ccccc1` [Phentermine, α,α-dimethyl phenethylamine (phenyl-tertiary-butylamine)], the solubility in alcohol entry is “soluble”, the solubility in chloroform result is on record as “soluble”, the solubility in ether result is reported as “soluble” and the solubility in water result is “slightly soluble”.

Consider `CC(C)(N)Cc1ccccc1` [phentermine HCl], for which, under “HCl”, the solubility in alcohol result is on record as “very soluble”, the solubility in chloroform result is listed as “very soluble”, the solubility in ether entry is reported as “insoluble” and the solubility in water result is given as “very soluble”.
